Holding throughout (assay): NCI-60 cell line screen, 48 h
Assay [1] has as its system UACC-62 melanoma.
The subject of assay [2] is HCT-116 colon.
For assay [3], the system named is MALME-3M melanoma.
Assay [4] relates to CAKI-1 renal.
Assay [5] relates to SNB-19 CNS.
Assay [6] relates to U251 CNS.
For assay [7], the system named is UO-31 renal.
The test system of assay [8] is NCI-H23 lung.
Assay [9] deals with DLD-1 colon.
The subject of assay [10] is HL-60(TB) leukemia.
Assay [11] has as its system EKVX NSCLC.
Assay [12] deals with SK-MEL-2 melanoma.
The subject of assay [13] is SNB-75 CNS.
The test system of assay [14] is SF-539 CNS.
The subject of assay [15] is RXF 393 renal.
Assay [16] deals with NCI-H522 lung.
Assay [17] relates to DU-145 prostate.
Assay [18] relates to MDA-MB-435.
Assay [19] relates to MDA-MB-231 breast.
The test system of assay [20] is MDA-N.

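96-well plates; 48 h exposure; 5 concentrations. Endpoints by linear interpolation between flanking doses. Not reached: highest tested concentration assigned. At the TGI there is no net growth.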

Consider `CCCCCCCCOC(CO)CO`, for which the TGI in [1], in [2], in [3], in assay [4], in assay [5] and in assay [6] was over 100 µM throughout. In addition, the TGI in assay [7], in [8], in assay [9] and in assay [10] was over 100 µM throughout.

In the case of `CC(O)C(N=Cc1nc(-c2ccccc2)oc1O)C(=O)O` (stereo not given), the TGI in [1], in assay [11], in [2], in [12], in assay [3] and in assay [4] was over 100 µM throughout. Further, the TGI in assay [5], in assay [13], in [6], in [7], in assay [14] and in [15] was over 100 µM in each case. The TGI in [8], in assay [9] and in [16] was over 100 µM in each case.

Regarding `C=CCC(CC=O)(C(=O)OCC)C(=O)OCC`, the TGI in assay [1], in assay [17], in assay [11], in assay [2], in assay [12] and in assay [3] was over 100 µM each time. Further, the TGI in assay [4], in assay [5], in assay [18], in assay [19], in assay [13] and in [6] was over 100 µM throughout. Moreover, the TGI in [7], in assay [14], in assay [15], in assay [8], in assay [20] and in assay [16] was over 100 µM each time. The TGI in [10] is over 100 µM.

In the case of `CCOC(=O)C(NCc1ccc2c(c1)OCO2)(NC(=O)c1ccccc1)C(F)(F)F` (stereo not given), the TGI in assay [1], in assay [17], in assay [11], in [2], in [12] and in assay [3] was over 100 µM each time. Further, the TGI in assay [4], in [5], in [18], in assay [19], in assay [13] and in assay [6] was over 100 µM each time. The TGI in assay [7], in assay [14], in [15], in assay [8], in [20] and in assay [16] was over 100 µM throughout. Besides, the TGI in assay [10] was determined as 82 µM.

`Cc1c(-c2nnc(-c3ccc(Cl)cc3)o2)c(=O)n(-c2ccccc2)n1C`: the TGI in [1], in [11], in assay [2], in [12], in [3] and in assay [5] was over 100 µM in each case. The TGI was over 100 µM in [13]; over 100 µM in assay [6]; over 100 µM in assay [7]; 90.1 µM in assay [14]; over 100 µM in assay [15]; over 100 µM in [8]. Also, the TGI in assay [9], in [16] and in assay [10] was over 100 µM each time.

Regarding `COc1cc(=O)n2c3ccccc3n(C)c2c1C#N`, the TGI in [1], in [17], in assay [11], in assay [2], in [12] and in assay [3] was over 100 µM each time. The TGI in assay [4], in assay [5], in assay [18], in assay [19], in [13] and in [6] was over 100 µM each time. Moreover, the TGI in assay [7], in assay [14], in assay [15], in [8], in assay [20] and in assay [16] was over 100 µM each time. This molecule also yielded a TGI in assay [10] of over 100 µM.

In the case of `CCN(CC)CCCNc1nc(=O)[nH]c(C)c1C(=O)Nc1c2ccccc2nc2ccccc12`, the TGI in assay [1] was 36.4 µM; in assay [17], over 100 µM; in assay [11] it was 74.5 µM; in assay [2], 21.7 µM; in [12], over 100 µM; in assay [3], 45.1 µM. In addition, the TGI in assay [4] was 56 µM; in assay [5], 62.2 µM; in assay [18], over 100 µM; in assay [19], 51.3 µM; in assay [13], 55.5 µM; in [6] it was over 100 µM. For the same molecule, the TGI in [7] was determined as 32.3 µM; in assay [14], 41.8 µM; in [15], 97 µM; in [8], 42.8 µM; in assay [20] it was 23.7 µM; in [16], 21.3 µM. Besides, the TGI in assay [10] was 60.9 µM.

With `Cn1cc(-c2cnc(-c3cn(C)c4ccccc34)cn2)c2ccccc21`, the TGI in [1] was 31.3 µM; in assay [17], over 58.5 µM; in assay [11] it was over 100 µM; in [2], over 100 µM; in assay [12], over 71.2 µM; in [3], over 100 µM. The TGI was over 100 µM in assay [4]; over 100 µM in [5]; 7.38 µM in assay [18]; over 96.6 µM in [19]; 25.7 µM in assay [13]; 40.2 µM in [6]. For the same molecule, the TGI in assay [7] was over 65 µM; in assay [14] it was 10.4 µM; in [15], 24.7 µM; in assay [8] it was 37.6 µM; in assay [20], 3.54 µM; in [16], 15.4 µM. The TGI in [10] turned out to be 8.66 µM.

Values taken from PubChem BioAssay (NCI).
